Source: patent US4206207A, “Use of 4-carboxy-phthalato(1,2-diaminocyclohexane)-platinum (II) and alkali metal salts thereof with cyclophosphamide in alleviating L1210 murine leukemia” (priority 1978, dated 1980)
Several values for one entry are separate records, joined by “and”; a condition that tells them apart may be missing. Equal entries are not always repeated.

How the values were obtained:
murine leukemia L1210 = test: Antileukemic activity in mice against murine leukemia L1210 (general statement); assay type: in vivo
Excerpt: Some previous platinum chelate compounds show dosage limitation due to renal impairment but the free carboxyl of the present composition offers a possible route of oral […] and absorption by the stomach.

L1210 [1] = test: In vitro growth inhibition of L1210 cells; assay type: cell-based, murine
Excerpt: (§1) The ID50 refers to the concentration of test compound required to
(§2) inhibit the growth of either the L1210 or L1210/DDP (NSC119875) resistant

L1210 leukemia [2] = test: Second screener against L1210 leukemia, day 1, 5, 9 schedule; assay type: in vivo, murine
Excerpt: The compound was submitted to the Drug Development Branch of the National Cancer Institute and assigned NSC Number 271674. It was screened against the L1210 leukemia on a day 1, 5, 9 schedule and the following results were obtained:

L1210 leukemia [3] = test: L1210 leukemia in mice, treatment delayed until Day 3, singly and in combination; assay type: in vivo, BDF1 mice; settings: Day 3 treatment
Description: The compound in 1% NaHCO3 solution was tested against the L1210 leukemia in BDF1 mice [10^6 cells given to mice on Day 0, treatment (ip) on Day 1 only] in laboratory and the following % increases in life span (%ILS) were noted:
When treatment was delayed until Day 3, 5 mg/kg gave 51% ILS, 42% ILS and 39% ILS in three experiments.

Lethality (LD50) in mice = settings: mouse, in vivo
CD8F1 mammary = test: Mouse tumor panel: CD8F1 mammary (sc, tumor weight inhibition); assay type: in vivo; settings: Q7DX5
Description: (§3) NSC-271674 Against a Panel of a Mouse Tumors
(§4) **Tumor weight inhibition assay.
(§5) Data are expressed as a percentage of the survival time in days or the
(§6) tumor weights in mg of the treated mice divided by the corresponding
(§7) values for the control mice. All testing was performed using both platinu
(§8) compounds in the same experiment. The criteria for activity are as
(§9) follows: confirmed activity (activity from two separate laboratories) of
(§10) % T/C of 150 or more for survival systems and 10% or less for tumor weigh
(§11) inhibition assays. Lower levels of activity such as a % T/C of 125 for
(§12) survival systems and 42% for tumor weight inhibition assays are considere
(§13) statistically significant.

[4] = system: strains of murine leukemia; test: Activity against strains of murine leukemia resistant to NSC 119875 (general statement); settings: mouse, in vivo
[5] = Renal Toxicity Screening Protocol, toxicity compared to NSC-119875; assay type: in vivo
P388 leukemia = test: In vivo activity against P388 leukemia; settings: Days 1,5,9,13, NSC-119875 6.7 mg/kg, NSC-271674 20.0 mg/kg
Excerpt: (§14) Data are expressed as survival in days and as a percentage increase in […]

L1210 leukemia [6] = test: L1210 leukemia in BDF1 mice, ip treatment on Day 1 only; assay type: in vivo; settings: for % increase in life span (% ILS): in 1% NaHCO3
Description: The compound in 1% NaHCO3 solution was tested against the L1210 leukemia in BDF1 mice [10^6 cells given to mice on Day 0, treatment (ip) on Day 1 only] in laboratory and the following % increases in life span (%ILS) were noted: […]

B16 melanoma = test: Mouse tumor panel: B16 melanoma (ip, survival time); assay type: in vivo; settings: D1-9
Description: as §3
(§15) *Survival time (mean or median) assay
as §5, §6, §7, §8, §9, §10, §11, §12, §13

L1210 leukemia [7] = test: NCI screen against L1210 leukemia, day 1, 5, 9 schedule; assay type: in vivo, murine
Excerpt: The compound was submitted to the Drug Development Branch of the National Cancer Institute and assigned NSC Number 271674. It was screened against the L1210 leukemia on a day 1, 5, 9 schedule and the following results were obtained: […]

L1210 [8] = test: Mouse tumor panel: L1210 (ip, survival time); assay type: in vivo; settings: D1-9
Description: as §3, §15, §5, §6, §7, §8, §9, §10, §11, §12, §13

Lewis lung = test: Mouse tumor panel: Lewis lung (iv, survival time); assay type: in vivo; settings: D1-9
Description: as §3, §15, §5, §6, §7, §8, §9, §10, §11, §12, §13

P388/DDP = test: In vivo activity against P388/DDP leukemia with acquired resistance to NSC-119875; settings: Days 1,5,9,13, NSC-119875 6.7 mg/kg, NSC-271674 20.0 mg/kg
Excerpt: P388/DDP refers to a tumor line with acquired resistance to NSC119875.
as §14

Colon #38 = test: Mouse tumor panel: Colon #38 (sc, tumor weight inhibition); assay type: in vivo; settings: D2,9
Description: as §3, §4, §5, §6, §7, §8, §9, §10, §11, §12, §13

L1210/DDP = test: In vitro growth inhibition of L1210/DDP (NSC-119875 resistant) cells; assay type: cell-based, murine
Excerpt: as §1, §2

[9] = 5 mg/kg + cyclophosphamide 50 mg/kg + 5-fluorouracil 75 mg/kg
[10] = 5 mg/kg + cyclophosphamide 50 mg/kg, two experiments

N[C@@H]1CCCC[C@H]1N.O=C([O-])c1ccc(C(=O)[O-])c(C(=O)[O-])c1.[H+].[Pt+2] [NSC-271674, 4-Carboxyphthalato(1,2-diaminocyclohexane)platinum(II)]
effect of combination with cyclophosphamide (in words) (murine leukemia L1210; cyclophosphamide 50 mg/kg, optionally 5-FU 75 mg/kg or HU 1000 mg/kg): potentiated | antileukemic activity (in words) (murine leukemia L1210; mice): antileukemic activity | effective dosage (murine leukemia L1210; mice): 5-60 mg/kg of body weight | ID50 (concentration required to inhibit the growth of cells by 50 percent) (L1210 [1]): 0.30 µg/mL | % ILS (L1210 leukemia [2]; 0.78 mg/kg): 19% | % ILS (L1210 leukemia [2]; 1.56 mg/kg): 19% | % ILS (L1210 leukemia [2]; 3.13 mg/kg): 41% | % ILS (L1210 leukemia [2]; 6.25 mg/kg): 58% | questionably toxic deaths (L1210 leukemia [2]; 6.25 mg/kg): 2 deaths | % ILS (L1210 leukemia [2]; 12.5 mg/kg): 147% | % ILS (L1210 leukemia [2]; 25 mg/kg): 86% | cures (L1210 leukemia [2]; all doses): No cures | % ILS (L1210 leukemia [3]; [9]): 673% | >60 day survivors (L1210 leukemia [3]; [9]): 8 of 10 | % ILS (L1210 leukemia [3]; [10]): 416% and 217% | >60 day survivors (L1210 leukemia [3]; [10]): 3 of 10 and no | % ILS (L1210 leukemia [3]; 5 mg/kg alone, three experiments): 51% and 42% and 39% | approximate LD50 (Lethality (LD50) in mice): ~75 mg/kg | % T/C (tumor weight) at optimal dose (CD8F1 mammary; CD8F1 first line, optimal dose NSC-119875 8, NSC-271674 6.25 mg/kg/inj): 11% | % T/C (tumor weight) at optimal dose (CD8F1 mammary; CD8F1 second line, optimal dose NSC-119875 8, NSC-271674 25 mg/kg/inj): 25% | activity against NSC 119875-exhausted strains (in words) [4]: appears to be active | renal toxicity (in words) ([5]; against NSC 119875): superior results in testing for renal toxicity | Body Weight Loss score ([5]; relative to NSC-119875): 3 | Clinical Chemistry - Blood Urea Nitrogen score ([5]; relative to NSC-119875): 1 | Clinical Chemistry - Creatinine score ([5]; relative to NSC-119875): 1 | Clinical Chemistry - Serum Glutamic Pyruvic Transaminase score ([5]; relative to NSC-119875): 3 | Hematology - Hematocrit score ([5]; relative to NSC-119875): 3 | Hematology - White Blood Cell score ([5]; relative to NSC-119875): 3 | Histopathology - Gastrointestinal score ([5]; relative to NSC-119875): 1 | Histopathology - Hematopoietic score ([5]; relative to NSC-119875): 5 | Histopathology - Lymphatic score ([5]; relative to NSC-119875): 1 | Histopathology - Renal score ([5]; relative to NSC-119875): 2 | TOTAL SCORE ([5]; sum of the ten scores): 23 | % ILS (P388 leukemia): 56% | Survival (P388 leukemia): 20.7 days | % increase in life span (% ILS) (L1210 leukemia [6]; 5 mg/kg ip): 70% | % increase in life span (% ILS) (L1210 leukemia [6]; 10 mg/kg ip): 118% | % increase in life span (% ILS) (L1210 leukemia [6]; 20 mg/kg ip): 119% | % increase in life span (% ILS) (L1210 leukemia [6]; 25 mg/kg ip): 139% | % increase in life span (% ILS) (L1210 leukemia [6]; 40 mg/kg ip): 232% | mice survived > 60 days (L1210 leukemia [6]; 50 mg/kg ip): 1 of 8 | % increase in life span (% ILS) (L1210 leukemia [6]; 50 mg/kg ip): 288% | mice survived > 60 days (L1210 leukemia [6]; 60 mg/kg ip): 1 of 8 | % increase in life span (% ILS) (L1210 leukemia [6]; 60 mg/kg ip): 174% | % T/C (survival time) at optimal dose (B16 melanoma; B16 first line, optimal dose NSC-119875 2, NSC-271674 6.25 mg/kg/inj): 171% | % T/C (survival time) at optimal dose (B16 melanoma; B16 second line, optimal dose NSC-119875 1, NSC-271674 1.56 mg/kg/inj): 159% | % ILS (L1210 leukemia [7]; 0.78 mg/kg): 27% | Cures (of 10) (L1210 leukemia [7]; 0.78 mg/kg): 0 of 10 | % ILS (L1210 leukemia [7]; 1.56 mg/kg): 33% | Cures (of 10) (L1210 leukemia [7]; 1.56 mg/kg): 0 of 10 | % ILS (L1210 leukemia [7]; 3.13 mg/kg): 46% | Cures (of 10) (L1210 leukemia [7]; 3.13 mg/kg): 0 of 10 | % ILS (L1210 leukemia [7]; 6.25 mg/kg): 163% | Cures (of 10) (L1210 leukemia [7]; 6.25 mg/kg): 1 of 10 | % ILS (L1210 leukemia [7]; 12.5 mg/kg): 191% | Cures (of 10) (L1210 leukemia [7]; 12.5 mg/kg): 2 of 10 | % ILS (L1210 leukemia [7]; 25 mg/kg): 344% | Cures (of 10) (L1210 leukemia [7]; 25 mg/kg): 5 of 10 | % T/C (survival time) at optimal dose (L1210 [8]; L1210 first line, optimal dose NSC-119875 2, NSC-271674 0.78 mg/kg/inj): 174% | % T/C (survival time) at optimal dose (L1210 [8]; L1210 second line, optimal dose NSC-119875 2, NSC-271674 1.56 mg/kg/inj): 325% | % T/C (survival time) at optimal dose (Lewis lung; Lewis lung first line, optimal dose NSC-119875 2, NSC-271674 3.12 mg/kg/inj): 122% | % T/C (survival time) at optimal dose (Lewis lung; Lewis lung second line, optimal dose NSC-119875 2, NSC-271674 6.25 mg/kg/inj): 127% | % ILS (P388/DDP): 201% | Survival (P388/DDP): 33.3 days | % T/C (tumor weight) at optimal dose (Colon #38; Colon #38 first line, optimal dose NSC-119875 8, NSC-271674 12.5 mg/kg/inj): 50% | % T/C (tumor weight) at optimal dose (Colon #38; Colon #38 second line, optimal dose NSC-119875 16, NSC-271674 50 mg/kg/inj): 33% | ID50 (concentration required to inhibit the growth of cells by 50 percent) (L1210/DDP): 0.23 µg/mL
